Like-named read-outs stand apart in the source and are kept apart here.
Columns and labels:
E. coli DH1 ΔacrAB [1] = conditions: for toxicity of the biofuel to cell growth: E. coli host, in words; for biofuel level that inhibited growth: added to pooled culture in M9 minimal medium, aimed at an inhibitory concentration that reduced growth by 25%
Method: In order to screen the efflux pump library against a variety of biofuels we devised a competition-based strategy to select for pumps that improved biofuel tolerance (FIG. 1A). Cells containing plasmids with individual pumps were grown separately and then pooled so that all individual strains were represented equally. This pooled culture was then grown both with and without biofuel, and maintained through serial dilutions every 10-14 hours over a total of 96 hours. At each dilution time point, plasmids from each culture were isolated and a custom microarray was used to quantify the amount of each efflux pump plasmid present in the culture (Methods).
Pooled culture glycerol stocks were used to inoculate M9 minimal medium with 30 μg/ml kanamycin and 10 μM IPTG. The culture was then divided into tubes to a final volume of 5 ml and biofuel was added directly to the tubes. All conditions were prepared in triplicate. Cultures were grown at 37° C. with orbital shaking at 200 rpm for all experiments.
Every 10-14 hours the cultures were diluted 1:100 into 5 ml of fresh M9 minimal medium with kanamycin, IPTG, and biofuel (where applicable). For the time-course assay, cultures were spun down at the completion of a growth cycle and plasmids were isolated. For end point competition assays, plasmid was isolated from the culture after 72 hours of serial dilution.
Custom microarrays (NimbleGen, Roche, USA) were used to measure the relative quantities of the efflux pumps present in the plasmid DNA isolated from the competition cultures. Arrays were designed so that they contained probes for all HAE1 annotated efflux pumps from all sequenced bacterial genomes. 12×135K arrays were used to allow for 12 experiments per slide.
Plasmid DNA was labeled and hybridized following the protocol for NimbleGen Comparative Genomic Hybridization Microarrays with minor modifications (Supporting Methods). Data were normalized using the standard settings for RMA analysis in the NimbleScan software. Probe values were averaged using a custom Matlab script (Mathworks, Inc.). […] For the positive hybridization control, all library plasmids were prepared individually and combined in vitro in equal proportions. For the negative hybridization control, a plasmid with the same vector backbone as those in the library, but no efflux pump, was isolated from DH1 ΔacrAB. Both hybridization controls were labeled and hybridized to the array using the methods described above.
This required the use of a co-solvent in order to accurately pipette small volumes. In both cases dimethylformamide (DMF) was used as the co-solvent. […] Other biofuels were added directly without the use of a co-solvent.

E. coli DH1 ΔacrAB [2] = type: cell-based; conditions: for effect of efflux pumps on tolerance to the biofuel (survival relative to pump-free negative control): top performing pump versus negative control, FIG. 3B and 3D
Method: Individual strains were adapted to M9 minimal medium as described in the Supporting Methods. […] The biofuel being tested was added directly to the cultures and they were grown overnight at 37° C. with orbital shaking. For end point measurements, the optical density was measured after 14 hours of growth in triplicate 5 ml cultures. For growth curve measurements, cultures were grown in triplicate in 24-well plates with 800 μl per well and optical density was measured every 10 minutes with a plate reader (BioTek Synergy 4, USA).

[3] = 2% geranyl acetate, serial dilution competition

Molecule: CC(C)=CCC/C(C)=C/CO [geraniol]
- toxicity of the biofuel to cell growth (E. coli DH1 ΔacrAB [1]): high and quite toxic
- biofuel level that inhibited growth (E. coli DH1 ΔacrAB [1]): 0.05 % v/v
- effect of efflux pumps on tolerance to the biofuel (survival relative to pump-free negative control) (E. coli DH1 ΔacrAB [2]): increase survival several-fold

Molecule: CC(C)CCO [isopentanol]
- toxicity of the biofuel to cell growth (E. coli DH1 ΔacrAB [1]): toxic
- biofuel level that inhibited growth (E. coli DH1 ΔacrAB [1]): 0.25 % v/v
- effect of efflux pumps on tolerance to the biofuel (survival relative to pump-free negative control) (E. coli DH1 ΔacrAB [2]): none of the pumps we tested confer an advantage

Molecule: CC(=O)OC/C=C(\C)CCC=C(C)C [geranyl acetate]
- biofuel level that inhibited growth (E. coli DH1 ΔacrAB [1]): 2 % v/v
- effect of efflux pumps on tolerance to the biofuel (survival relative to pump-free negative control) (E. coli DH1 ΔacrAB [2]): essentially confer immunity

Molecule: CCCCO [n-butanol]
- toxicity of the biofuel to cell growth (E. coli DH1 ΔacrAB [1]): toxic
- biofuel level that inhibited growth (E. coli DH1 ΔacrAB [1]): 0.5 % v/v
- effect of efflux pumps on tolerance to the biofuel (survival relative to pump-free negative control) (E. coli DH1 ΔacrAB [2]): none of the pumps we tested confer an advantage

B1: MexB: Pseudomonas aeruginosa PAO1 MexAB-OprM multidrug efflux pump (protein, UniProt P52002 1-1046, looked up)
Multidrug resistance protein …: MSKFFIDRPIFAWVIALVIMLAGGLSILSLPVNQYPAIAPPAIAVQVSYPGASAETVQDTVVQVIEQQMNGIDNLRYISSESNSDGSMTITVTFEQGTDPDIAQVQVQNKLQLATPLLPQEVQRQGIRVTKAVKNFLMVVGVVSTDGSMTKEDLSNYIVSNIQDPLSRTKGVGDFQVFGSQYSMRIWLDPAKLNSYQLTPGDVSSAIQAQNVQISSGQLGGLPAVKGQQLNATIIGKTRLQTAEQFENILLKVNPDGSQVRLKDVADVGLGGQDYSINAQFNGSPASGIAIKLATGANALDTAKAIRQTIANLEPFMPQGMKVVYPYDTTPVVSASIHEVVKTLGEAILLVFLVMYLFLQNFRATLIPTIAVPVVLLGTFGVLAAFGFSINTLTMFGMVLAIGLLVDDAIVVVENVERVMAEEGLSPREAARKSMGQIQGALVGIAMVLSAVFLPMAFFGGSTGVIYRQFSITIVSAMALSVIVALILTPALCATMLKPIEKGDHGEHKGGFFGWFNRMFLSTTHGYERGVASILKHRAPYLLIYVVIVAGMIWMFTRIPTAFLPDEDQGVLFAQVQTPPGSSAERTQVVVDSMREYLLEKESSSVSSVFTVTGFNFAGRGQSSGMAFIMLKPWEERPGGENSVFELAKRAQMHFFSFKDAMVFAFAPPSVLELGNATGFDLFLQDQAGVGHEVLLQARNKFLMLAAQNPALQRVRPNGMSDEPQYKLEIDDEKASALGVSLADINSTVSIAWGSSYVNDFIDRGRVKRVYLQGRPDARMNPDDLSKWYVRNDKGEMVPFNAFATGKWEYGSPKLERYNGVPAMEILGEPAPGLSSGDAMAAVEEIVKQLPKGVGYSWTGLSYEERLSGSQAPALYALSLLVVFLCLAALYESWSIPFSVMLVVPLGVIGALLATSMRGLSNDVFFQVGLLTTIGLSAKNAILIVEFAKELHEQGKGIVEAAIEACRMRLRPIVMTSLAFILGVVPLAISTGAGSGSQHAIGTGVIGGMVTATVLAIFWVPLFYVAVSTLFKDEASKQQASVEKGQ
- outcome of efflux pump in competition (E. coli DH1 ΔacrAB [1]; [3]): survived the competition
- outcome of efflux pump in competition (E. coli DH1 ΔacrAB [1]; 2% α-pinene, 72 hours serial dilution): borderline survivor
- growth of individual pump-expressing strain (E. coli DH1 ΔacrAB [2]; with 2% α-pinene, grown independently): survives well in α-pinene for the first 10 hours

B2: AcrB: Escherichia coli K12 AcrAB efflux pump, plasmid-based copy (protein, UniProt P31224 1-1049, looked up)
Multidrug efflux pump subunit …: MPNFFIDRPIFAWVIAIIIMLAGGLAILKLPVAQYPTIAPPAVTISASYPGADAKTVQDTVTQVIEQNMNGIDNLMYMSSNSDSTGTVQITLTFESGTDADIAQVQVQNKLQLAMPLLPQEVQQQGVSVEKSSSSFLMVVGVINTDGTMTQEDISDYVAANMKDAISRTSGVGDVQLFGSQYAMRIWMNPNELNKFQLTPVDVITAIKAQNAQVAAGQLGGTPPVKGQQLNASIIAQTRLTSTEEFGKILLKVNQDGSRVLLRDVAKIELGGENYDIIAEFNGQPASGLGIKLATGANALDTAAAIRAELAKMEPFFPSGLKIVYPYDTTPFVKISIHEVVKTLVEAIILVFLVMYLFLQNFRATLIPTIAVPVVLLGTFAVLAAFGFSINTLTMFGMVLAIGLLVDDAIVVVENVERVMAEEGLPPKEATRKSMGQIQGALVGIAMVLSAVFVPMAFFGGSTGAIYRQFSITIVSAMALSVLVALILTPALCATMLKPIAKGDHGEGKKGFFGWFNRMFEKSTHHYTDSVGGILRSTGRYLVLYLIIVVGMAYLFVRLPSSFLPDEDQGVFMTMVQLPAGATQERTQKVLNEVTHYYLTKEKNNVESVFAVNGFGFAGRGQNTGIAFVSLKDWADRPGEENKVEAITMRATRAFSQIKDAMVFAFNLPAIVELGTATGFDFELIDQAGLGHEKLTQARNQLLAEAAKHPDMLTSVRPNGLEDTPQFKIDIDQEKAQALGVSINDINTTLGAAWGGSYVNDFIDRGRVKKVYVMSEAKYRMLPDDIGDWYVRAADGQMVPFSAFSSSRWEYGSPRLERYNGLPSMEILGQAAPGKSTGEAMELMEQLASKLPTGVGYDWTGMSYQERLSGNQAPSLYAISLIVVFLCLAALYESWSIPFSVMLVVPLGVIGALLAATFRGLTNDVYFQVGLLTTIGLSAKNAILIVEFAKDLMDKEGKGLIEATLDAVRMRLRPILMTSLAFILGVMPLVISTGAGSGAQNAVGTGVMGGMVTATVLAIFFVPVFFVVVRRRFSRKNEDIEHSHTVDHH
- outcome of efflux pump in competition (E. coli DH1 ΔacrAB [1]; 0.025% limonene, 72 hours serial dilution): best exported
- outcome of efflux pump in competition (E. coli DH1 ΔacrAB [1]; 0.05% geraniol, 72 hours serial dilution): best exported
- outcome of efflux pump in competition (E. coli DH1 ΔacrAB [1]; [3]): survived the competition

Reference: patent US9428726B2, “Modified host cells with efflux pumps” (priority 2010, dated 2016)
